Source: patent US12364718B2, “Microbial compositions to increase the production of PCA from polyphenols” (priority 2020, dated 2025)

How the values were obtained:
B. subtilis 1579 = experiment: National Antimicrobial Resistance Monitoring System (NARMS) panel screening, MIC in […] 96-well plate; type: cell-based, Bacillus subtilis; design: Minimum Inhibitory Concentrations (MIC), 1579a / Minimum Inhibitory Concentrations (MIC), 1579b: unit not given here; details: for MIC interpretation (susceptible/intermediate/resistant), 1579a / Minimum Inhibitory Concentrations (MIC), 1579a: duplicate a; for MIC interpretation (susceptible/intermediate/resistant), 1579a / MIC interpretation (susceptible/intermediate/resistant), 1579b: CLSI M45 Bacillus spp. or NARMS Enterococcus breakpoints; for MIC interpretation (susceptible/intermediate/resistant), 1579b / Minimum Inhibitory Concentrations (MIC), 1579b: duplicate b; for Minimum Inhibitory Concentrations (MIC), 1579a / Minimum Inhibitory Concentrations (MIC), 1579b: Mueller-Hinton broth, 37° C., read at 18 hours
Procedure: Methods. […] A sterile swab was used to take a portion of the pellet and resuspended in sterile ddH2O tubes; a 0.5 McFarland standard was used to determine the optimal dilution. 15 microliters of the ddH2O was transferred into the 5 mL tubes of Mueller-Hinton broth and the mixture was vortexed and poured into a sterile boat. A p200 multi-channel pipette was used to transfer 50 microliters into each well of the […] 96-well microtiter plate (CMV3AGPF) plate (FIG. 3) and sealed. The plates were incubated at 37° C. overnight. The plates were removed at 18 hours and each well was given a result of either positive or negative depending on if there was any growth in the well.

[1] = test system: Bovine Aortic Endothelial Cells (BAEC); experiment: Inflammatory marker gene expression in LPS stimulated bovine endothelial cells (qPCR); type: cell-based; design: Cox-2 gene expression: dose or concentration left out as unconfirmed; details: LPS stimulation, 6 hours, qPCR vs GAPDH
Procedure: To determine potential mode of action of PCA, in vitro studies were performed using Bovine Aortic Endothelial Cells (BAEC). Stress was induced in mammalian endothelial cells using a lipopolysaccharide (LPS) model, which causes an inflammatory response through inflammatory cytokine, NO and prostaglandin release. After 6 hours, cells were lysed and cellular RNA was recovered using Direct-zol RNA MiniPrep Plus kit (Zymo Research) following the manufacturer's instructions. RNA was converted to cDNA using the QuantiNova Reverse Transcription Kit (Qiagen). Gene expression was then quantified using the QuantiTect SYBR Green PCR kit with primers specific for inflammatory markers. Inducible nitric oxide expression was screened using primers iNOSF ([…], SEQ ID NO: 7) and iNOSR ([…], SEQ ID NO: 8), Cyclo-oxygenase 2 primers, COX2F ([…], SEQ ID NO: 9) and COX2R ([…], SEQ ID NO: 10), and Interleukin-6 primers IL6F ([…], SEQ ID NO: 11) and IL6R ([…], SEQ ID NO: 12) compared against the house keeping gene GAPDH, primers GAPDH-F ([…], SEQ ID NO: 13) and GAPDH-R ([…], SEQ ID NO: 14). Quantitative PCR reactions were set up in 20 μl volumes as per the manufacturer's recommendations (Qiagen). Thermocycler conditions started with a 15 min denaturation at 95° C. followed by 40 cycles of denaturation at 95° C. for 15 seconds, annealing at 60° C. for 30 seconds and extension at 60° C. for 30 seconds before a melt curve.

Compound	MIC interpretation (susceptible/intermediate/resistant), 1579a (B. subtilis 1579)	MIC interpretation (susceptible/intermediate/resistant), 1579b (B. subtilis 1579)	IL-6 expression ([1]; 1 g/ml and 10 µg/ml PCA)	iNOS gene expression ([1]; 1 g/ml and 10 µg/ml PCA)	Cox-2 gene expression ([1]; PCA)	Minimum Inhibitory Concentrations (MIC), 1579a (B. subtilis 1579)	Minimum Inhibitory Concentrations (MIC), 1579b (B. subtilis 1579)
CCCCCCCCCC(=O)N[C@@H](Cc1c[nH]c2ccccc12)C(=O)N[C@H](CC(N)=O)C(=O)N[C@@H](CC(=O)O)C(=O)N[C@@H]1C(=O)NCC(=O)N[C@@H](CCCN)C(=O)N[C@@H](CC(=O)O)C(=O)N[C@H](C)C(=O)N[C@@H](CC(=O)O)C(=O)NCC(=O)N[C@H](CO)C(=O)N[C@@H]([C@H](C)CC(=O)O)C(=O)N[C@@H](CC(=O)c2ccccc2N)C(=O)O[C@@H]1C [Daptomycin]	S	S					
O=C(O)c1ccc(O)c(O)c1 [PCA, protocatechuic acid]			dose dependently decreased	decreased	decreased		
CN(C)c1cc(NC(=O)CNC(C)(C)C)c(O)c2c1C[C@H]1C[C@H]3[C@H](N(C)C)C(O)=C(C(N)=O)C(=O)[C@@]3(O)C(O)=C1C2=O [Tigercycline]	S	S					
CN[C@H](CC(C)C)C(=O)N[C@H]1C(=O)N[C@@H](CC(N)=O)C(=O)N[C@H]2C(=O)N[C@H]3C(=O)N[C@H](C(=O)N[C@H](C(=O)O)c4cc(O)cc(O)c4-c4cc3ccc4O)[C@H](O)c3ccc(c(Cl)c3)Oc3cc2cc(c3O[C@@H]2O[C@H](CO)[C@@H](O)[C@H](O)[C@H]2O[C@H]2C[C@](C)(N)[C@H](O)[C@H](C)O2)Oc2ccc(cc2Cl)[C@H]1O [Vancomycin]	S	S					
Gentamycin	S	S				128	128
Penicillin	S	S				1	0.5
Quinupristin/dalfopristin						4	32
